Results on 22 molecules are retold here after US11578087B2, “Oxaborole esters and uses thereof” (priority 2016, dated 2023).

Test [1] relates to IL3000 T. congolense (drug sensitive) strain. Description: In vitro Alamar Blue 72 h drug sensitivity assay for T. congolense. Type of test: cell-based, Trypanosoma congolense. Particulars: Trypanosoma congolense, 72 h, bloodstream form, 69 h + 3 h Resazurin, 34° C., read-out: IC50: I Org. Growth T. congolense 3 d. How it is done: Example 252. In Vitro Alamar Blue 72 h Drug Sensitivity Assay for T. congolense
Compounds were tested in vitro for chemotherapeutic potency against the IL3000 T. congolense (drug sensitive) strain, using the Alamar Blue assay with several modifications. Test compounds were prepared as 10 mg/mL DMSO stocks for each assay run. Compounds were assayed in at least three separate, independent test runs and an 11-point dilution curve was used to determine the IC50 values. Bloodstream form trypanosomes were supported in HMI media containing 20% bovine serum and were incubated with test compounds for 69 h at 34° C. in a humidified atmosphere containing 5% CO2. Thereafter, 10 μL of Resazurin dye (12.5 mg in 100 mL of phosphate buffered saline, Sigma-Aldrich, Buchs, Switzerland) were added for an additional 3 h. Plates were then read using a fluorescent plate reader (Spectramax, Gemini XS, Bucher Biotec, Basel, Switzerland) using an excitation wavelength of 536 nm and an emission wavelength of 588 nm. Data points were averaged to generate sigmoidal dose-response curves and IC50 values were determined using Softmax Pro 5.2 software.
(Alamar Blue is a resazurin reagent that responds to reducing activity.)

Test [2] relates to T. cruzi amastigote (Td Tomato-modified) in Vero cells. Description: In vitro IC50 measurement of T. cruzi amastigote killing using Td Tomato-modified T. cruzi. Type of test: cell-based. The settings on record: Trypanosoma cruzi, 72 h, fluorescence, read-out: IC50: I Org. amastigote Growth T. cruzi 3 d. In short, it runs like this: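 Vero cells infected with Td Tomato-expressing T. cruzi, treated with compound at 5 uM to 5 nM final, incubated 72 h at 37 °C. Fluorescence (Ex 544/Em 612 nm) read at Day 0 and Day 3, Day 0 subtracted; IC50 and IC90 by nonlinear regression.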

As to `Cc1c(C(=O)NC2(C(=O)OCCN3CCOCC3)COC2)ccc2c1B(O)OC2` [Example 6-222, 2-morpholinoethyl 3-(1-hydroxy-7-methyl-1,3-dihydrobenzo[c][1,2]oxaborole-6-carboxamido)oxetane-3-carboxylate], the IC50 is 10 to 5000 nM in test [1] and no less than 1000 nM in test [2].
On to `Cc1c(C(=O)N[C@H](C(=O)OCc2cccc(N3CCN(C)CC3)n2)C(C)C)ccc2c1B(O)OC2` [Example 6-201, (6-(4-methylpiperazin-1-yl)pyridin-2-yl)methyl (1-hydroxy-7-methyl-1,3-dihydrobenzo[c][1,2]oxaborole-6-carbonyl)-L-valinate], for which the IC50 in test [1] is less than 0.5 nM; in test [2] it was 21 to 999 nM.
As to `Cc1c(C(=O)N[C@H](C(=O)OC2CCNCC2)C(C)C)ccc2c1B(O)OC2` [Example 6-146, Piperidin-4-yl (1-hydroxy-7-methyl-1,3-dihydrobenzo[c][1,2]oxaborole-6-carbonyl)-L-valinate], the results for the IC50 in test [1] and in test [2] were 10 to 5000 nM and no less than 1000 nM, respectively.
In the same order, the values of `Cc1c(C(=O)N[C@H](C(=O)OCc2cscn2)C(C)C)ccc2c1B(O)OC2` [Example 6-128, Thiazol-4-ylmethyl (1-hydroxy-7-methyl-1,3-dihydrobenzo[c][1,2]oxaborole-6-carbonyl)-L-valinate] are less than 0.5 nM and 21 to 999 nM.
As for `Cc1c(C(=O)N[C@H](C(=O)OCC(CO)CO)C(C)C)ccc2c1B(O)OC2` [Example 6-149, 3-hydroxy-2-(hydroxymethyl)propyl (1-hydroxy-7-methyl-1,3-dihydrobenzo[c][1,2]oxaborole-6-carbonyl)-L-valinate], the IC50 was 10 to 5000 nM in test [1] and no less than 1000 nM in test [2].
The matching figures for `CSCC[C@H](NC(=O)c1ccc2c(c1)B(O)OC2)C(=O)OCc1ccccc1` [Example 6-008, Benzyl (1-hydroxy-1,3-dihydrobenzo[c][1,2]oxaborole-6-carbonyl)-L-methioninate]: 0.51 to 9.99 nM and 21 to 999 nM.
The matching figures for `Cc1c(C(=O)N[C@H](C(=O)OCc2ccc(F)c(F)c2)C(C)C)ccc2c1B(O)OC2` [Example 6-166, 3,4-Difluorobenzyl (1-hydroxy-7-methyl-1,3-dihydrobenzo[c][1,2]oxaborole-6-carbonyl)-L-valinate]: less than 0.5 nM and no more than 20 nM.
Consider `COCCOC(=O)[C@@H](NC(=O)c1ccc2c(c1C)B(O)OC2)C(C)C` [Example 6-107, 2-Methoxyethyl (1-hydroxy-7-methyl-1,3-dihydrobenzo[c][1,2]oxaborole-6-carbonyl)-L-valinate], for which the IC50 in test [1] is less than 0.5 nM; in test [2] it was no more than 20 nM.
In the same order, the values of `Cc1c(C(=O)N[C@H](C(=O)OCc2ccc(F)cc2)C2CCCC2)ccc2c1B(O)OC2` [Example 6-060, 4-Fluorobenzyl (S)-2-cyclopentyl-2-(1-hydroxy-7-methyl-1,3-dihydrobenzo[c][1,2]oxaborole-6-carboxamido)acetate] are 0.51 to 9.99 nM and 21 to 999 nM.
Take `Cc1c(C(=O)N[C@H](C(=O)OC2COC2)C(C)C)ccc2c1B(O)OC2` [Example 6-135, Oxetan-3-yl (1-hydroxy-7-methyl-1,3-dihydrobenzo[c][1,2]oxaborole-6-carbonyl)-L-valinate]: the figures for the 50% inhibitory concentration (IC50) in test [1] and in test [2] were less than 0.5 nM and 21 to 999 nM, respectively.
As for `Cc1c(C(=O)N[C@H](C(=O)OCc2ccc(F)c(C(F)(F)F)c2)C(C)C)ccc2c1B(O)OC2` [Example 6-049, 4-Fluoro-3-(trifluoromethyl)benzyl (1-hydroxy-7-methyl-1,3-dihydrobenzo[c][1,2]oxaborole-6-carbonyl)-L-valinate], the IC50 in test [1] was less than 0.5 nM; in test [2], no more than 20 nM.
On to `Cc1c(C(=O)N[C@H](C(=O)OCc2ccc(F)cc2)C(C)(C)O)ccc2c1B(O)OC2` [Example 6-169, 4-Fluorobenzyl (S)-3-hydroxy-2-(1-hydroxy-7-methyl-1,3-dihydrobenzo[c][1,2]oxaborole-6-carboxamido)-3-methylbutanoate], for which the IC50 in test [1] is less than 0.5 nM; in test [2], no more than 20 nM.
In the same order, the values of `Cc1c(C(=O)N[C@H](C(=O)OCc2cccc(C#N)n2)C(C)C)ccc2c1B(O)OC2` [Example 6-189, (6-cyanopyridin-2-yl)methyl (1-hydroxy-7-methyl-1,3-dihydrobenzo [c][1,2]oxaborole-6-carbonyl)-L-valinate] are less than 0.5 nM and no more than 20 nM.
For `Cc1c(C(=O)N[C@H](C(=O)OCCN2CCCC2=O)C(C)C)ccc2c1B(O)OC2` [Example 6-212, 2-(2-oxopyrrolidin-1-yl)ethyl (1-hydroxy-7-methyl-1,3-dihydrobenzo[c][1,2]oxaborole-6-carbonyl)-L-valinate], the IC50 in test [1] fell in the range of 10 to 5000 nM; in test [2] it was 21 to 999 nM.
As to `Cc1c(C(=O)N[C@H](C(=O)OCc2ccc(S(=O)(=O)C(C)C)cc2)C(C)C)ccc2c1B(O)OC2` [Example 6-092, 4-(Isopropylsulfonyl)benzyl (1-hydroxy-7-methyl-1,3-dihydrobenzo[c][1,2]oxaborole-6-carbonyl)-L-valinate], the figures for the half-maximal inhibitory concentration (IC50) in test [1] and in test [2] were less than 0.5 nM and 21 to 999 nM, respectively.
Turning to `Cc1c(C(=O)N[C@H](C(=O)OCc2cncc(N3CCN(C)CC3)n2)C(C)C)ccc2c1B(O)OC2` [Example 6-204, (6-(4-methylpiperazin-1-yl)pyrazin-2-yl)methyl (1-hydroxy-7-methyl-1,3-dihydrobenzo[c][1,2]oxaborole-6-carbonyl)-L-valinate], the concentration for half-maximal inhibition (IC50) is less than 0.5 nM in test [1] and no more than 20 nM in test [2].
As for `Cc1c(C(=O)N[C@H](C(=O)OCC2CCOCC2)C(C)C)ccc2c1B(O)OC2` [Example 6-172, (tetrahydro-2H-pyran-4-yl)methyl (1-hydroxy-7-methyl-1,3-dihydrobenzo[c][1,2]oxaborole-6-carbonyl)-L-valinate], the concentration for half-maximal inhibition (IC50) was less than 0.5 nM in test [1] and no more than 20 nM in test [2].
Consider `Cc1c(C(=O)N[C@H](C(=O)OCc2ccc(F)cc2)C(C)C)ccc2c1B(O)OC2C` (stereo partly drawn) [Example 6-061, 4-Fluorobenzyl (3,7-dimethyl-1-hydroxy-1,3-dihydrobenzo[c][1,2]oxaborole-6-carbonyl)-L-valinate], for which the IC50 in test [1] was 0.51 to 9.99 nM; in test [2], 21 to 999 nM.
As to `Cc1c(C(=O)N[C@H](C(=O)OCc2cnc(N)nc2)C(C)C)ccc2c1B(O)OC2` [Example 6-225, (2-aminopyrimidin-5-yl)methyl (1-hydroxy-7-methyl-1,3-dihydrobenzo[c][1,2]oxaborole-6-carbonyl)-L-valinate], the half-inhibitory concentration (IC50) fell in the range of 10 to 5000 nM in test [1] and 21 to 999 nM in test [2].
Take `Cc1c(C(=O)N[C@H](C(=O)OCc2cccc(N3CCNCC3)c2)C(C)C)ccc2c1B(O)OC2` [Example 6-126, 3-(Piperazin-1-yl)benzyl (1-hydroxy-7-methyl-1,3-dihydrobenzo[c][1,2]oxaborole-6-carbonyl)-L-valinate]: the IC50 was 0.51 to 9.99 nM in test [1] and no less than 1000 nM in test [2].
`O=C(N[C@@H](CO)C(=O)OCc1ccccc1)c1ccc2c(c1)B(O)OC2` [Example 6-007, Benzyl (1-hydroxy-1,3-dihydrobenzo[c][1,2]oxaborole-6-carbonyl)-L-serinate]: the IC50 was 10 to 5000 nM in test [1] and no less than 1000 nM in test [2].
In the same order, the values of `CC(C)[C@H](NC(=O)c1ccc2c(c1)B(O)OC2)C(=O)OCc1ccccc1` [Example 6-005, Benzyl (1-hydroxy-1,3-dihydrobenzo[c][1,2]oxaborole-6-carbonyl)-L-valinate] are 0.51 to 9.99 nM and 21 to 999 nM.

For orientation: IC50 means the concentration at which inhibition is half-maximal.
